Experimental data reported in patent publication US5547958A, “N-(8α-ergolinyl)-amides” (Schering Aktiengesellschaft, priority 1989, dated 1996).

Tested on: behavior stereotypes on rats (masticatory, licking, or gnawing movements)
Experiment: Stereotype-releasing effectiveness on rats 1 hour after i.p. pretreatment (dopamine agonistic action)
Type: in vivo
Details: probit analysis, n = 8; for ED50 (effective dose, stereotype-releasing effectiveness): 60th-62nd min p.i.
Method: The dopamine agonistic action was determined according to Horowski, R. and Wachtel, H. Eur. J. Pharmaz. col. 36: 373-383, 1976. One hour after i.p. pretreatment with test substance or vehicle, the presence of behavior stereotypes on rats (masticatory, licking, or gnawing movements) was determined for 2 minutes (60th-62nd min. p.i.).
Stereotype-releasing effectiveness on rats 1 hour
after i.p. pretreatment. Effective doses (ED50) with 95%
confidence limit were determined with the help of probit

| Compound | ED50 (effective dose, stereotype-releasing effectiveness) | 95% Confidence Limit of ED50 |
| --- | --- | --- |
| CCCN1CC(NC(=S)SC)C[C@@H]2c3cccc4[nH]c(C)c(c34)C[C@H]21 (stereo partly shown) [A, N(2-methyl-6-n-propyl-8ergolinyl)-dithiocarbamic acid methyl ester] | 0.080 | 0.010-0.170 |
| CCCN1CC(NC=S)C[C@@H]2c3cccc4[nH]c(C)c(c34)C[C@H]21 (stereo partly shown) [B, N(2-methyl-6-n-propyl-8ergolinyl)-thioformamide] | 0.050 | 0.034-0.079 |
